Measured values: PubChem BioAssay (NCI)
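These data come from cells grown in 96-well plates and exposed to compound for 48 hours at five concentrations. Definition used: TGI = concentration required for complete inhibition of growth.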

Columns and labels:
Assay in all cases: growth of human tumour cells (NCI), 48 h
MDA-MB-435 = system: MDA-MB-435
HOP-92 NSCLC = system: HOP-92 NSCLC
786-0 renal = system: 786-0 renal
MCF7 breast = system: MCF7 breast
UO-31 renal = system: UO-31 renal
SF-295 CNS = system: SF-295 CNS
SK-MEL-5 melanoma = system: SK-MEL-5 melanoma
LOX IMVI melanoma = system: LOX IMVI melanoma
CAKI-1 renal = system: CAKI-1 renal
T-47D breast = system: T-47D breast
HL-60(TB) leukemia = system: HL-60(TB) leukemia
HCT-116 colon = system: HCT-116 colon
PC-3 prostate = system: PC-3 prostate
A498 renal = system: A498 renal
OVCAR-4 ovarian = system: OVCAR-4 ovarian
SW-620 colon = system: SW-620 colon
UACC-257 melanoma = system: UACC-257 melanoma
CCRF-CEM leukemia = system: CCRF-CEM leukemia
SF-539 CNS = system: SF-539 CNS
OVCAR-3 ovarian = system: OVCAR-3 ovarian
HCC-2998 colon = system: HCC-2998 colon
MALME-3M melanoma = system: MALME-3M melanoma
K-562 leukemia = system: K-562 leukemia
SF-268 CNS = system: SF-268 CNS
DU-145 prostate = system: DU-145 prostate
MDA-N = system: MDA-N
UACC-62 melanoma = system: UACC-62 melanoma
NCI-H460 lung = system: NCI-H460 lung
U251 CNS = system: U251 CNS
HS 578T breast = system: HS 578T breast
COLO 205 colon = system: COLO 205 colon
TK-10 renal = system: TK-10 renal
SN12C renal = system: SN12C renal
A549 NSCLC = system: A549 NSCLC
KM12 colon = system: KM12 colon
RPMI-8226 leukemia = system: RPMI-8226 leukemia
OVCAR-8 ovarian = system: OVCAR-8 ovarian
SK-OV-3 ovarian = system: SK-OV-3 ovarian
MOLT-4 leukemia = system: MOLT-4 leukemia
IGROV1 ovarian = system: IGROV1 ovarian
HOP-62 NSCLC = system: HOP-62 NSCLC
NCI-H226 lung = system: NCI-H226 lung
NCI-H23 lung = system: NCI-H23 lung
OVCAR-5 ovarian = system: OVCAR-5 ovarian
NCI-H522 lung = system: NCI-H522 lung
M14 melanoma = system: M14 melanoma
SR leukemia = system: SR leukemia
SK-MEL-28 melanoma = system: SK-MEL-28 melanoma
SK-MEL-2 melanoma = system: SK-MEL-2 melanoma
NCI/ADR-RES ovarian = system: NCI/ADR-RES ovarian
HT29 colon = system: HT29 colon
HCT-15 colon = system: HCT-15 colon
EKVX NSCLC = system: EKVX NSCLC
ACHN renal = system: ACHN renal
SNB-19 CNS = system: SNB-19 CNS
SNB-75 CNS = system: SNB-75 CNS
MDA-MB-231 breast = system: MDA-MB-231 breast
RXF 393 renal = system: RXF 393 renal
BT-549 breast = system: BT-549 breast

Measured: TGI

CC1(C)CC(=O)/C(=C/C2CCNC2=S)C(=O)N1 (centres undefined)
not listed: RXF 393 renal | BT-549 breast
> 100 µM: all other assays above

CCC(CC)C(=O)OC[n+]1ccc(-c2c(COC(=O)NC(C)C)c(COC(=O)NC(C)C)c3n2CCC3)cc1
not listed: MDA-MB-435 | LOX IMVI melanoma | T-47D breast | HCT-116 colon | MALME-3M melanoma | SF-268 CNS | DU-145 prostate | UACC-62 melanoma | NCI-H460 lung | TK-10 renal | KM12 colon | OVCAR-5 ovarian | SK-MEL-28 melanoma | SK-MEL-2 melanoma | HT29 colon | ACHN renal | SNB-75 CNS
> 100 µM: all other assays above
